Measurements: paper PMC6017881, “Probing the Influence of Linker Length and Flexibility in the Design and Synthesis of New Trehalase Inhibitors” (Molecules : A Journal of Synthetic Chemistry and Natural …, 2018)
Entries after “also recorded” stand apart in the source; their conditions may differ. Read-outs that look alike come from different tables or passages of the source.

Experiments:
porcine kidney trehalase [1] = biological target: T1, porcine kidney trehalase (Sus scrofa, UniProt I3LIR5); assay: Trehalase inhibition, coupled assay with glucose-6-phosphate dehydrogenase and hexokinase (dose-response); format: biochemical; details: 2.5 mM trehalose (close to Km), 30 °C; read-out: IC50 towards porcine trehalase
T1 construct: porcine kidney trehalase (purchased from Sigma-Aldrich); purchased Sigma-Aldrich; host or cells: porcine kidney
T1 sequence (I3LIR5 24-583): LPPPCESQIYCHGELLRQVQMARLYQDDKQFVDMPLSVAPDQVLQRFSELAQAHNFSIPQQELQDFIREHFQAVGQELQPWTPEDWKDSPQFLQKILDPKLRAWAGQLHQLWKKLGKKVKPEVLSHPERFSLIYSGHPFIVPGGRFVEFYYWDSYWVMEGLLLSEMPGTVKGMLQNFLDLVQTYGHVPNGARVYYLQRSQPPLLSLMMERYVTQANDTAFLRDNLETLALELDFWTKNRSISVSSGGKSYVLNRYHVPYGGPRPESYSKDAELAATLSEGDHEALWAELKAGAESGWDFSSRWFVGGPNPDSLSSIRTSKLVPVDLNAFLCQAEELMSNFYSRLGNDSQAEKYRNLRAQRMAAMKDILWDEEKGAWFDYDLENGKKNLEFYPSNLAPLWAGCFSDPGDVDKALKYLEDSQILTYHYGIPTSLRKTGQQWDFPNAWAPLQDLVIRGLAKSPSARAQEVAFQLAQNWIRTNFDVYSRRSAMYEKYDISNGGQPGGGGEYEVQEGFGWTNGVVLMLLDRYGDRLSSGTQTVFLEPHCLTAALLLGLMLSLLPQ
Method: (§1) Compounds were tested for their inhibitory activity against insect trehalase of midge larvae of C. riparius, a good model for biochemical studies, and porcine kidney trehalase (purchased from Sigma-Aldrich, St. Louis, MO, USA) as the mammalian counterpart.
(§2) Trehalase activity was measured through a coupled assay with glucose-6-phosphate dehydrogenase and hexokinase according to Wegener at al. To examine the potential of each compound as a trehalase inhibitor, dose-response curves were established to determine the IC50 values. Experiments were performed at a fixed substrate concentration close to the Km value (0.5 mM for C. riparius and 2.5 mM for porcine trehalase), in the presence of increasing inhibitor concentrations.Initial rates as a function of inhibitor concentration were fitted to the following equation:(1) vi/v=1/1+([I]/IC50)^n where vi and v are the initial rate in the presence and in the absence of inhibitor, respectively, [I] is the inhibitor concentration, IC50 is the inhibitor concentration producing half-maximal inhibition, and n is the Hill coefficient.
(§3) All enzyme assays were performed in triplicates at 30 °C by using sample volumes varying from 5 to 20 μL in 1 mL test and using a Cary3 UV/Vis Spectrophotometer. Enzyme activities were analyzed by Cary Win UV application software for Windows XP.

porcine kidney trehalase [2] = biological target: T1, porcine kidney trehalase; set-up: method as in PMID 25407551; details: value taken from the literature; ref [7]; read-out: IC50 towards porcine trehalase; cited from earlier work
C. riparius trehalase [3] = biological target: T2, C. riparius trehalase (Chironomus riparius, UniProt J7EJ73); assay: Trehalase inhibition, coupled assay with glucose-6-phosphate dehydrogenase and hexokinase (dose-response); format: biochemical
Method: as §1, §2, §3

C. riparius trehalase [4] = biological target: T2, C. riparius trehalase; assay: Inhibition kinetics at varying trehalose concentration (Lineweaver-Burk plot and replots); format: biochemical; details: varying trehalose concentration at two inhibitor concentrations
Method: To evaluate the inhibitory pattern we performed kinetics measurements by varying the trehalose concentration, at two different concentrations of compounds 9α and 9β.
Kinetic experiments were performed using C. riparius trehalase, measuring enzymatic activity at different trehalose concentrations from 0.05 to 20 mM in the presence of fixed inhibitor concentrations (5–10 µM for the compound 9α and 0.5–1 µM for the compound 9β). Kinetic parameters were calculated using a multiparameter, iterative, non-linear regression program based on the Marquardt-Levenberg algorithm (Sigma Plot, Jandel, CA, USA). Data are given ± S.D. of three independent experiments.
as §3

T2 sequence (J7EJ73 entry or part of it): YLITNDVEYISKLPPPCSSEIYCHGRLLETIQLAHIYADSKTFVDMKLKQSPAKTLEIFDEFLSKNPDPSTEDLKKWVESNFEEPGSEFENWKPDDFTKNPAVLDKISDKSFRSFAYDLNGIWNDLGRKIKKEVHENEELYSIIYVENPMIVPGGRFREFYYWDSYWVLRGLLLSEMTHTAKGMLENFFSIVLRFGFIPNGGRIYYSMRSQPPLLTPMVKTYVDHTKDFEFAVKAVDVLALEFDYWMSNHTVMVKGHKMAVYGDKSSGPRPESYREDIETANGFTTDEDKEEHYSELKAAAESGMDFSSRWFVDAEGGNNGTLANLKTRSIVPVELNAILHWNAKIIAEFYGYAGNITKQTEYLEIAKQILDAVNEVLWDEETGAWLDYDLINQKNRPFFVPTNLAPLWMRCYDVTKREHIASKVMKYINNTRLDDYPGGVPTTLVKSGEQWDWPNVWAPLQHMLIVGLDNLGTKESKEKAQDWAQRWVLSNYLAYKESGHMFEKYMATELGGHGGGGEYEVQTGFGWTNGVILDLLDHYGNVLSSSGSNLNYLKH

Row | IC50 (porcine kidney trehalase [1]) | Compound | IC50 (porcine kidney trehalase [2]) | Inhibitory activity towards C. riparius trehalase (in words) (C. riparius trehalase [3]) | also measured
1 | 7.67 ± 3.91 µM | OC[C@@H]1[C@@H](O)[C@H](O)CN1CCOC1O[C@H](CO)[C@@H](O)[C@H](O)[C@H]1O (stereo partly drawn) [9α,β] |  |  | 
2 |  | OC[C@@H]1[C@@H](O)[C@H](O)[C@H]2C[C@@H](O[C@H]3O[C@H](CO)[C@@H](O)[C@H](O)[C@H]3O)CN12 [Compound 4, 7-deoxycasuarine glucoside] | 0.479 ± 0.045 µM |  | 
3 |  | OC[C@@H]1[C@@H](O)[C@H](O)[C@H]2[C@H](O)[C@H](O)CN21 [Compound 6, (-)-uniflorine A] | > 1000 µM |  | 
4 |  | OC[C@@H]1[C@@H](O)[C@H](O)[C@H]2C[C@H](O)CN12 [Compound 7, 7-deoxy-uniflorine A] | > 1000 µM |  | 
5 | 191 ± 34.1 µM | OC[C@@H]1[C@@H](O)[C@H](O)[C@H]2C[C@H](O[C@H]3O[C@H](CO)[C@@H](O)[C@H](O)[C@H]3O)CN12 [Compound 8, (1R,2R,3R,6S,7aR)-1,2-dihydroxy-3-(hydroxymethyl)hexahydro-1H-pyrrolizin-6-yl-α-hexopyranoside] |  | active only in the μM range | 
6 | 27.6 ± 5.35 µM | OC[C@@H]1[C@@H](O)[C@H](O)CN1CCO[C@H]1O[C@H](CO)[C@@H](O)[C@H](O)[C@H]1O [Compound 9α] |  |  | Inhibitory pattern (inhibition type) (C. riparius trehalase [4]): pure competitive
7 | 5.84 ± 0.26 µM | OC[C@@H]1[C@@H](O)[C@H](O)CN1CCO[C@@H]1O[C@H](CO)[C@@H](O)[C@H](O)[C@H]1O [Compound 9β] |  |  | Inhibitory pattern (inhibition type) (C. riparius trehalase [4]): pure competitive
8 |  | OCC1OC(OCCCN2CC(O)C(O)C2CO)C(O)C(O)C1O (stereo not drawn) [Compound 10] |  | loose completely their inhibitory properties; also recorded: completely inactive | 
9 |  | OCC1OC(OCCCCN2CC(O)C(O)C2CO)C(O)C(O)C1O (stereo not drawn) [Compound 11] |  | loose completely their inhibitory properties; also recorded: completely inactive | 
